According to patent US20220118117A1, “MODULATORS OF METABOTROPIC GLUTAMATE RECEPTOR 4” (The General Hospital Corporation, priority 2019, published 2022):
Where “and” joins values, the source holds several entries; their conditions need not be identical. Identical values can stand only once.

What was measured:
microsomal stability = format: in vitro ADME, Sprague-Dawley rat; settings: rat liver microsomes, NADPH
Experimental: First, Sprague-Dawley rat liver microsomes (0.5 mg/mL, Sigma-Aldrich, No. M9066) was incubated with PBS (50 mM, pH=7.4) in a reaction tube at 37° C. for 3 min. To the reaction tube were added the test compound (2 μM) and then cofactor, NADPH (1 mM), to start the reaction. The mixture was shaken in a water bath at 37° C. At different time points (0, 5, 10, 15, 30 min), aliquots (50 μL) were removed and added to 100 μl of cold acetonitrile with internal standard (25 μM) to quench the reaction. The precipitated material was by centrifugation (10,000×g, 10 min, 4° C.), and the supernatant was analyzed by RP-HPLC (Column: Phenomenex Luna© 5 μm, Cis, 100 Å, 250×4.6 mm). The RP-HPLC was carried out by using a 15-min gradient method: eluent A: 0.1% formic acid/H2O; eluent B: 0.1% formic acid/CH3CN; gradient: […]; 5% B to 95% B from 1 to 9 min, 95% B from 9 to 12 min, 95% to 5% B from 12 to 13 min, 5% B from 13 to 15 min; flow rate at 0.7 mL/min.
The in peak area ratio (test compound peak area at a time point/peak area at 0 min time point) was plotted against time and the gradient of the line was determined. Subsequently, the half-life (t1/2) was calculated as 0.693/k, where the elimination rate constant k equals to −gradient. V (μL/mg) was obtained as a ratio of volume of incubation […]/protein in the incubation (mg). Finally, the intrinsic clearance (CLint) (μL/min/mg protein) was calculated as V*0.693/t1/2.

[1] = Log D7.4, scaled-down shake flask method using [18F]15; format: physicochemical; settings: octanol / phosphate buffer pH 7.4
Experimental: The test tube was mixed by vortex for 2 min and then centrifuged for 2 min to fully separate the aqueous and organic phase. The samples taken from the octanol layer (0.1 mL) and the aqueous layer (1.0 mL) were saved for radioactivity measurement. An additional aliquot of the octanol layer […] was carefully transferred to a new test tube containing 0.5 mL of octanol and 2.5 mL of phosphate buffer solution (pH 7.4). The previous procedure (vortex mixing, centrifugation, sampling, and transfer to the next test tube) was repeated until six sets of aliquot samples had been prepared. The radioactivity of each sample was measured using PerkinElmer Wizard2 2480 gamma-counter. The log D of each set of samples was calculated as the following:
Log D7.4=Log(radioactivity of octanol layer×10/radioactivity of PBS layer)
Lipophilicity has a major effect on BBB penetration, ADMET properties and pharmacological activity. […] The Log D7.4 of 15 was 3.82 as measured with a scaled-down shake flask method using [^18F]15 (Table 2) and is in the range normally considered favorable for a PET ligand. (Ref. 43).

[2] = test system: other mGlu receptors (mGluR1, mGluR5, mGluR2, mGluR3, mGluR6, mGluR8); experiment: mGluR subtype selectivity (Ca2+ mobilization and cAMP assays); format: cell-based; settings: Gq coupled: Ca2+ mobilization; Gi/o coupled: cAMP assay
Experimental: Ca^2+ mobilization assay. The Gq coupled receptors (mGluR1 and mGluR5) were tested using Ca^2+ mobilization assay. mGluR1 stable cell lines were plated into poly-L-lysine (PLL) coated 384-well black clear bottom cell culture plates with complete Basal Medium Eagle (BME) buffer, which was composed of 10% dialyzed FBS, penicillin G (100 units/mL), streptomycin (100 μg/mL) with Tetracycline (1 μg/mL) at density of 20,000 cells in 40 μl per well for overnight. […] Once loaded in FLIPR (Molecular Devices), basal fluorescence was measured for 10 s, then 10 μL of test or reference compounds were added, followed by continued fluorescence measurement for an additional 120 s. […]
cAMP assay. […] Luminescence was counted in a Trilux luminescence counter. Data were analyzed with Prizm 5.0 (GraphPad software).
The selectivity of 15 was also analyzed among the various mGluR subtypes, in which the Gq coupled receptors (mGluR1 and mGluR5) were tested using Ca^2+ mobilization assay and the Gi/o coupled receptors (mGluR2, mGluR3, mGluR4, mGluR6 and mGluR8) using the cAMP assay.

- The microsome stability t1/2 (microsomal stability): 57.258 min and 57.3 min
- Log D7.4 [1]: 3.82
SMILES: [2H]C([2H])(F)Sc1cc(NC(=O)c2ccccn2)ccc1Cl [Compound 15, N-(4-Chloro-3-((fluoromethyl-d2)thio)phenyl)picolinamide]
- selectivity among mGluR subtypes [2]: has selectivity against other mGlu receptors
